ChEMBL document CHEMBL1201862, “PubChem BioAssay data set” (2004)
Where “and” joins values, the source holds several entries; their conditions need not be identical. Equal entries are not always repeated. Calls of active or inactive are those of the source.

Columns and labels:
X-box-binding protein 1 = X-box-binding protein 1 (Homo sapiens, UniProt P17861); format: functional, Cricetulus griseus;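 note: confirmatory dose-response counter-screen serving a CHOP assay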
BJ [1] = test: BJ-TERT fibroblast viability loss – cell-based, RAS-independent, luminescence, dose response (AID 1933); format: functional, Homo sapiens; settings: bj
BJ [2] = test: BJ-TERT-LT-ST fibroblast viability loss – cell-based, RAS-independent, luminescence, dose response (AID 1935); format: functional, Homo sapiens; settings: bj;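 note: BJ fibroblasts immortalized with TERT plus LT and ST oncogenes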
BJ [3] = test: cells; format: functional, cell-based, Homo sapiens; settings: bj
[4] = biological target: Peroxisome proliferator-activated receptor gamma/Nuclear receptor corepressor 2 (Homo sapiens, UniProt P37231+Q9Y618); format: functional
Sequence of Peroxisome proliferator-activated receptor gamma/Nuclear receptor corepressor 2 (P37231 whole entry): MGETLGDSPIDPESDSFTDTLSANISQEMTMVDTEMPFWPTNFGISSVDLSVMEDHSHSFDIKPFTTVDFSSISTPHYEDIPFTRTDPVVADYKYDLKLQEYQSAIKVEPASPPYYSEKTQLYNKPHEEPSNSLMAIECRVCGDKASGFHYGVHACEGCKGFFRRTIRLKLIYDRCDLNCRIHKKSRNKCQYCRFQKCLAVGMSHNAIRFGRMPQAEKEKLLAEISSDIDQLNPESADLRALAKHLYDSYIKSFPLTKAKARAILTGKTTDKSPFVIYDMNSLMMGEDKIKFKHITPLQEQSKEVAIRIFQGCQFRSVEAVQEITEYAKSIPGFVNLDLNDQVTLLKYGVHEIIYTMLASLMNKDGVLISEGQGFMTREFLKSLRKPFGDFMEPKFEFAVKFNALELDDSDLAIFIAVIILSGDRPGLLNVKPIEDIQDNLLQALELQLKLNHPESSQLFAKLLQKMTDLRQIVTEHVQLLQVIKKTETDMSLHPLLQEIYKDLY
Sequence of Peroxisome proliferator-activated receptor gamma/Nuclear receptor corepressor 2 (Q9Y618 whole entry): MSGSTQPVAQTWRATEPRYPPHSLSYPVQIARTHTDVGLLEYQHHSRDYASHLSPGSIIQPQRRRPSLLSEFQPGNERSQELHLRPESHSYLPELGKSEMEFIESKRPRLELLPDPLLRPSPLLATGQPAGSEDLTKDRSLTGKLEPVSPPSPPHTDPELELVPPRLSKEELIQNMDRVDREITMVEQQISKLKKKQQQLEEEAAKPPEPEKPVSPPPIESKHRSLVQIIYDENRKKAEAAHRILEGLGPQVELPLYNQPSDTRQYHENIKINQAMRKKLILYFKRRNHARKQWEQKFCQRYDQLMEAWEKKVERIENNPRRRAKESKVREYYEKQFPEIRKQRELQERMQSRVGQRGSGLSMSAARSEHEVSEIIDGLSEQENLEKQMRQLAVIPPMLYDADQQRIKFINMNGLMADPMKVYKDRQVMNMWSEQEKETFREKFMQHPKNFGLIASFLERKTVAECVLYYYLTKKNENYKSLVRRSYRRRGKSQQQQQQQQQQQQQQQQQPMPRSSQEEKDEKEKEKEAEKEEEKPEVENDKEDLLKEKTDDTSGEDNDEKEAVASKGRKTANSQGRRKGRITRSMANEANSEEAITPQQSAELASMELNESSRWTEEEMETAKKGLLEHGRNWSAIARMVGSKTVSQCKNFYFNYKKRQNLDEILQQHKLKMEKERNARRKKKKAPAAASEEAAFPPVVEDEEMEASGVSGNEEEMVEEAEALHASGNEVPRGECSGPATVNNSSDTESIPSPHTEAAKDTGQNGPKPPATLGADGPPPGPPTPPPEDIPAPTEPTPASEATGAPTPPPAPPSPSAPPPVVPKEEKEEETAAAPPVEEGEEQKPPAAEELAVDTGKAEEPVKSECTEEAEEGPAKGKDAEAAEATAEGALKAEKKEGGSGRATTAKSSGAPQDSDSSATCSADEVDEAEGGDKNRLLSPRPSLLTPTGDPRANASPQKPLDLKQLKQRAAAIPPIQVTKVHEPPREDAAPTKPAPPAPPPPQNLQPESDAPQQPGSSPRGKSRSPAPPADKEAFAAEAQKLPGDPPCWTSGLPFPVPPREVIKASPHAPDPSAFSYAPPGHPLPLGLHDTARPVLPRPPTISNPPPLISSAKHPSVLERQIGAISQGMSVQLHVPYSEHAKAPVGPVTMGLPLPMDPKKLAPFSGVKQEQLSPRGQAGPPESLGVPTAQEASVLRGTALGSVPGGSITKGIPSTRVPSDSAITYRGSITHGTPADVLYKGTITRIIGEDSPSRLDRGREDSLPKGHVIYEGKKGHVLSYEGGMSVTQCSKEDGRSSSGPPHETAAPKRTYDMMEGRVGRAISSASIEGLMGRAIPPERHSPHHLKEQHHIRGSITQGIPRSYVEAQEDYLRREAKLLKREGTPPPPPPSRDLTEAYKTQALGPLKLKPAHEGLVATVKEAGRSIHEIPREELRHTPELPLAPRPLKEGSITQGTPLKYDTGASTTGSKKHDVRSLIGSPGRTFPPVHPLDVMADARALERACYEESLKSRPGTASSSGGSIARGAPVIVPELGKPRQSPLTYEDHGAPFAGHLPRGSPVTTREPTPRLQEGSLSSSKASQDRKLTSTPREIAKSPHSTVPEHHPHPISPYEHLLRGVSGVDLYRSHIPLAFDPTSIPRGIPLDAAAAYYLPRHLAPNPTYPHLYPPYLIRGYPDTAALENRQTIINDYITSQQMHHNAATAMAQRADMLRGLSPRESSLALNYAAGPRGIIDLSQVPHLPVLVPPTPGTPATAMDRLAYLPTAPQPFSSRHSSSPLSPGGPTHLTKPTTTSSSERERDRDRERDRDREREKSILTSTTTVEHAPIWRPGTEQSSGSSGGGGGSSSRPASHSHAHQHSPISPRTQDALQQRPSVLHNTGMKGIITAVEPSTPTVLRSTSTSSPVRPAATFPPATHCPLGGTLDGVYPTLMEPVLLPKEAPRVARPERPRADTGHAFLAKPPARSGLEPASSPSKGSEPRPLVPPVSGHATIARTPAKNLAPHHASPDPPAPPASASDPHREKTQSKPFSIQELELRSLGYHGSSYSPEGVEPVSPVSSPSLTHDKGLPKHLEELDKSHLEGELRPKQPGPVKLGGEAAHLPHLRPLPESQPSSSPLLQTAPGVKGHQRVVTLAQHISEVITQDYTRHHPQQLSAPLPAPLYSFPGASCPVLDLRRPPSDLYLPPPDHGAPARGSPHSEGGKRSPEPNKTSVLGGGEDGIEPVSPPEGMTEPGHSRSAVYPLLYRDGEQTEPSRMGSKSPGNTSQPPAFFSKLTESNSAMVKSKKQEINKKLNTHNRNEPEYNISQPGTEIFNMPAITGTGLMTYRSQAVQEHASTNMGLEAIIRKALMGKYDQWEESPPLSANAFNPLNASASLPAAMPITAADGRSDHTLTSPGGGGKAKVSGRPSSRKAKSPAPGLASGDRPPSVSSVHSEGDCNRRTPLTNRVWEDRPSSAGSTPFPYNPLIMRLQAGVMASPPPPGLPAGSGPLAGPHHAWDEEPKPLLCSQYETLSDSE

[5] = biological target: Photoreceptor-specific nuclear receptor (Homo sapiens, UniProt Q9Y5X4); format: functional;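 note: potency for compounds that break the NR2E3 corepressor complex and count as activators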
[6] = biological target: Peroxisome proliferator-activated receptor gamma/Nuclear receptor coactivator 2 (Homo sapiens, UniProt P37231); test: (§1) TR-FRET dose response biochemical High Throughput Screening assay for agonists of the steroid receptor coactivator 2 (SRC-2) recruitment by the peroxisome proliferator-activated receptor gamma (PPAR gamma): non-selective agonists. [Related pubchem assays: 1297, 1032 ]; format: functional
Protein Tat = Protein Tat (Human immunodeficiency virus type 1 group M subtype B (isolate HXB2)(HIV-1), UniProt P04608); format: functional;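 note: tat binding to TAR RNA read out by fluorescence polarization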
Sequence of Protein Tat (P04608 whole entry): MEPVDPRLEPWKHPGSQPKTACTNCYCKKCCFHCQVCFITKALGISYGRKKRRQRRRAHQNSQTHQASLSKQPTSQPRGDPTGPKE

[7] = biological target: Peroxisome proliferator-activated receptor gamma/Nuclear receptor coactivator 1 (Homo sapiens, UniProt P37231); test: as §1, with “1 (SRC-1)” for “2 (SRC-2)”, “assays (depositor defined):AID1300, AID1808, AID504735, AID631]” for “assays: 1297, 1032 ]”; format: protein assay
[8] = biological target: Peroxisome proliferator-activated receptor gamma/Nuclear receptor coactivator 3 (Homo sapiens, UniProt P37231); test: as §1, with “3 (SRC-3)” for “2 (SRC-2)”, “1301 (Confirmation screen.), 1048 (Primary screen.)]” for “1297, 1032 ]”; format: functional
[9] = Trypanosoma cruzi growth suppression in host cells – NIH3T3 host cells, beta-gal luminescence, confirmation (AID 2044); format: functional, cell-based;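 note: intracellular parasites grown in NIH/3T3 mouse fibroblasts as host cells; luminescent beta-galactosidase reporter signal from transgenic T. cruzi replicating inside host cells; inhibitors lower the luminescence signal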
[10] = viability loss of HPDE-C7K cells – cell-based, fluorescence, HTS, primary screen (AID 431); format: functional; settings: Homo sapiens
[11] = NIH3T3 cell viability loss – ATP luminescence, mouse fibroblasts, counter-screen, dose response (AID 2010); format: functional, cell-based;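 note: cells exposed to compound for about 90 hours before reading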
H4 = test: Luminescence Cell-Based Dose Response HTS to Identify Activators of 5'UTR Stem-Loop Driven Prion Protein mRNA Translation in H4 Neuroglioblastoma Cells. [Related pubchem assays: 1829 (Project Summary), 1814 (Primary HTS)]; format: functional; settings: Homo sapiens
[12] = Luminescence Cell-Based Dose Response HTS to Identify Activators of Luciferase Translation or Activity in H4 […] Cells. [Related pubchem assays: 1829 (Project Summary), 1814 (Primary HTS)]; format: functional
[13] = HPDE-C7 pancreatic duct cell viability loss – fluorescence, HTS (AID 430); format: functional, cell-based; settings: Homo sapiens
[14] = Luminescence Cell-Based Dose Confirmation HTS to Identify Activators of 5'UTR Stem-Loop Driven Alpha-Synuclein mRNA Translation in H4 Neuroglioblastoma Cells. [Related pubchem assays: 1829 (Project Summary), 1814 (Primary HTS)]; format: functional
[15] = biological target: Fructose-bisphosphate aldolase (Mycobacterium tuberculosis, UniProt P9WQA3); test: Fluorescence-based biochemical high throughput dose response assay for inhibitors of the fructose-bisphosphate aldolase (FBA) of M. tuberculosis.; format: functional
Sequence of Fructose-bisphosphate aldolase (P9WQA3 whole entry): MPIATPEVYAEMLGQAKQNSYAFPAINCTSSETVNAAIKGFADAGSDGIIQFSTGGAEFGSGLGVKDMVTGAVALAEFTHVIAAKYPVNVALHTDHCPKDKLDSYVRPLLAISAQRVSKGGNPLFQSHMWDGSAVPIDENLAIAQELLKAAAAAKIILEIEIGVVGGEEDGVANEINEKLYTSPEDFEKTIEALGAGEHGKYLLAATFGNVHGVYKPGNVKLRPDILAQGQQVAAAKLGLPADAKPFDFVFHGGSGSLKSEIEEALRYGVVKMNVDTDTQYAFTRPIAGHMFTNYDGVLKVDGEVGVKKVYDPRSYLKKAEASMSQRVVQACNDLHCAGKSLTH

Estrogen receptor beta [16] = biological target: T1, Estrogen receptor beta (Homo sapiens, UniProt Q92731); test: blockers of SRC-3 recruitment to ERβ – biochemical, ELISA, streptavidin-HRP readout, orthogonal assay, confirmation (AID 1060)
T1 sequence (Q92731 whole entry): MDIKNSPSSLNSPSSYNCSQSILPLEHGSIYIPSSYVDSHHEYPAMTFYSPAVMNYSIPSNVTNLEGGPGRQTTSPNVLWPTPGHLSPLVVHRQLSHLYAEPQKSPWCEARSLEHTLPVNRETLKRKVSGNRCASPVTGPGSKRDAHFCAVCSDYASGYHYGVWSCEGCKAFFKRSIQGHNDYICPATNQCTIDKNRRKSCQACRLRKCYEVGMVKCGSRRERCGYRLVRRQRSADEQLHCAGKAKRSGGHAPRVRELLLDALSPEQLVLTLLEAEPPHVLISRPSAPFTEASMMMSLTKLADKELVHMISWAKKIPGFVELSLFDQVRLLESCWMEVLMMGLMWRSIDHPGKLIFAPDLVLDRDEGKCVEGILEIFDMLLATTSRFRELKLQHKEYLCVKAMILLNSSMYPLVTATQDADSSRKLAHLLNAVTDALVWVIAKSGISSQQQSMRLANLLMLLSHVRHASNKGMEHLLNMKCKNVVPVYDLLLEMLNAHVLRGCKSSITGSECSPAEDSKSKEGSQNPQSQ

Estrogen receptor beta [17] = biological target: T1, Estrogen receptor beta
[18] = biological target: Lysosomal acid glucosylceramidase (Homo sapiens, UniProt P04062); test: Dose response cell-based high throughput screening assay to identify enhancers of beta-glucosidase activity. [Related pubchem assays: 784 ]; format: functional
Sequence of Lysosomal acid glucosylceramidase (P04062 whole entry): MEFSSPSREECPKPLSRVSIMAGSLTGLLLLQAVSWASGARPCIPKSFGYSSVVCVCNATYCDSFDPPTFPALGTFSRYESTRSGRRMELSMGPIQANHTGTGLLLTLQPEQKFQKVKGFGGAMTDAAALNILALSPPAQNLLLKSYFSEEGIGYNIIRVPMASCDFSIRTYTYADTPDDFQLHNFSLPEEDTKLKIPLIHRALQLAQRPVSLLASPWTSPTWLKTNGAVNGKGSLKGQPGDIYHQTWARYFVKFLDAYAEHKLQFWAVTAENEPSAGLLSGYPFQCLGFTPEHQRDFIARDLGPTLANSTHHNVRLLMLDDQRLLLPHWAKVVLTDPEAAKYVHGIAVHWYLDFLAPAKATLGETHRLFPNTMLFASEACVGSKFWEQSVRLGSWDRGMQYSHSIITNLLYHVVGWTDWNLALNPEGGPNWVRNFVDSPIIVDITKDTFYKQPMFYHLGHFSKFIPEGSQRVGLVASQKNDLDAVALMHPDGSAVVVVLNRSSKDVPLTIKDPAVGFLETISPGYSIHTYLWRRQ

Sequence of X-box-binding protein 1 (P17861 whole entry): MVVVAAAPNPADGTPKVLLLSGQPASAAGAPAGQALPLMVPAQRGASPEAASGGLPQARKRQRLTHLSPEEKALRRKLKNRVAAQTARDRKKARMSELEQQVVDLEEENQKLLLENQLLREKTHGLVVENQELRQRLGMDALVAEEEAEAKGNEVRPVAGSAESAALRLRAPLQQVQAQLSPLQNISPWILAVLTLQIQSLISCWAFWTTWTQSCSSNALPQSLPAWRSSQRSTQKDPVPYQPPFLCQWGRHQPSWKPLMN

Question: Which results are given for `C=C(C=O)CC1CC(O)[C@]2(C)OC3CC4OC5C[C@]6(C)O[C@]7(C)CCC8OC9C[C@]%10(C)OC%11C(C)=CC(=O)OC%11CC%10OC9C[C@@H](C)C8OC7CC6O[C@]5(C)CC5OC5C4OC3CC2O1` (some centres not stated)?
Answer: Absolute IC50 (XBP1) (X-box-binding protein 1): 4.71 µM; EC50 (BJ [1]): 1.17 µM (inconclusive); EC50 (BJ [2]): 0.735 µM (inconclusive); EC50 (BJ [3]): 2.93 µM (inconclusive)

Question: Which results are given for `O=C(O)CCc1ccc(-c2ccc(Br)cc2)o1`?
Answer: IC50 [4]: 4.4 µM (active); IC50 [5]: > 39.8 µM (not active); EC50 [6]: 65.4 µM (not active); IC50 (Protein Tat): > 100 µM (active); EC50 [7]: > 79.4 µM (inactive); EC50 [8]: > 79.4 µM (not active)

Question: With `Nc1c(C(=O)NCc2ccco2)c2nc3ccccc3nc2n1CCN1CCCCC1` as the compound, how does the EC50 [9] read?
Answer: 2.43 µM (active)

Question: And the EC50 [10]?
Answer: 14.4 µM (active)

Question: What about the EC50 [11] of the same compound?
Answer: 9.81 µM (active)

Question: And the EC50 (H4)?
Answer: > 120 µM (not active)

Question: And the EC50 [12]?
Answer: 26.9 µM (active)

Question: What about the EC50 [13] of the same compound?
Answer: 12.6 µM (active)

Question: And the EC50 [14]?
Answer: > 120 µM (not active)

Question: And the IC50 [15]?
Answer: 0.776 µM (active)

Question: Which IC50 (Estrogen receptor beta [16]) does the source give for `Cc1ccccc1Nc1nnc(SCC(=O)NCc2ccco2)s1` here?
Answer: 3.24 µM (not active) and > 50 µM (not active)

Question: And the IC50 (Estrogen receptor beta [17])?
Answer: 10.3 µM (active)

Question: For `CCOC(=O)c1c(NC(=O)Cc2cccs2)sc(C(=O)NC2CCCCC2)c1C`, which “Absolute IC50 (XBP1)” value (X-box-binding protein 1) is on record?
Answer: 10 µM

Question: Which EC50 [18] does the source give for `CC(C)OC(=O)CSc1nnc(-c2cccnc2)n1N` here?
Answer: > 10 µM (not active)
